Marks after values point to notes of the source that are not given here. Starred links: 1 amine or outer side, 2 acyl side, 3 side chain; linkers in the order of their positions; H or OH if unused. Positions of bridges follow the written chain, without caps; N, C: chain ends. Non-standard residues stand in square brackets, D forms with d. Residues, ends and D or L forms follow the SMILES beside them. ξ: configuration not given here. *: point of attachment. Hexadecanesulfonyl = CCCCCCCCCCCCCCCCS(=O)(=O)*; X3 = CC(NC(=O)[C@H](N)CN)C(N[*:1])C(=O)[*:2]; ξAbu(βξ-NH2) = CC(N[*:3])C(N[*:1])C(=O)[*:2]; X7 = CC(NC(=O)C1CCNCC1)C(N[*:1])C(=O)[*:2]; Arg(Me2s) = CN=C(NC)NCCC[C@H](N)C(=O)O; Pentadecanoyl = CCCCCCCCCCCCCCC(=O)*; X8 = O=C(/C=C/c1ccc(N[*:1])cc1)[*:2]; ξAsp(βξ-Me) = CC(C(=O)O)C(N)C(=O)O; Tridecanoyl = CCCCCCCCCCCCC(=O)*; ξAbu(3ξ-NH2) = CC(N)C(N)C(=O)O; Undecanoyl = CCCCCCCCCCC(=O)*; X32 = CC(C)CCCCCC/C=C\C(=O)*; Lauroyl = CCCCCCCCCCCC(=O)*; 12Ado = NCCCCCCCCCCCC(=O)O; Pip = O=C(O)[CH]1CCCCN1; ξD = NC(CC(=O)O)C(=O)O; ξPip = O=C(O)C1CCCCN1; ξV = CC(C)C(N)C(=O)O; ξP = O=C(O)C1CCCN1; OtBu = CC(C)(C)O*

What is called MIC is the least concentration at which growth counts as inhibited.

In the first assay the test system is Staphylococcus aureus (MSSA). Conditions: 24 h. A digest of the protocol: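 Broth microdilution MIC per NCCLS M7-A6 with doubling serial dilutions, in cation-adjusted Mueller-Hinton broth supplemented with 0.625 mM calcium.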
Take `CCCCCCCCCCCCCCCCS(=O)(=O)N[C@@H](Cc1ccccc1)C(=O)NC(CC(=O)O)C(=O)NC1C(=O)N2CCCCC2C(=O)NC(C(C)C(=O)O)C(=O)NC(CC(=O)O)C(=O)NCC(=O)NC(CC(=O)O)C(=O)NCC(=O)NC(C(C)N)C(=O)NC(C(C)C)C(=O)N2CCCC2C(=O)NC1C` (stereo partly drawn) [Compound 270, CH3—(CH2)15—SO2-Phe-Amphomycin] (Hexadecanesulfonyl-F[ξD][ξAbu(βξ-NH2)][ξPip][ξAsp(βξ-Me)][ξD]G[ξD]G[ξAbu(3ξ-NH2)][ξV][ξP]; lactam 3-C): the MIC was in the range of 16 to 32 µg/mL.

Take `CCCCCCCCOc1ccc(C(=O)NC(CC(=O)O)C(=O)NC2C(=O)N3CCCCC3C(=O)NC(C(C)C(=O)O)C(=O)NC(CC(=O)O)C(=O)NCC(=O)NC(CC(=O)O)C(=O)NCC(=O)NC(C(C)N)C(=O)NC(C(C)C)C(=O)N3CCCC3C(=O)NC2C)cc1` (stereo not shown) [Compound 19, CH3—(CH2)7—O-p-Ph-C(═O)-Amphomycin]: the MIC stood at 0.5 µg/mL.

As to `CCCCCCCCCCCCCCC(=O)NC(CC(=O)O)C(=O)NC1C(=O)N2CCCCC2C(=O)NC(C(C)C(=O)O)C(=O)NC(CC(=O)O)C(=O)NCC(=O)NC(CC(=O)O)C(=O)NCC(=O)NC(C(C)NC(=O)[C@H](N)CN)C(=O)NC(C(C)C)C(=O)N2CCCC2C(=O)NC1C` (stereo partly drawn) [Compound 328, C15-Amphomycin-9-(D-Dap)] (Pentadecanoyl-[ξD][ξAbu(βξ-NH2)][ξPip][ξAsp(βξ-Me)][ξD]G[ξD]G[X3][ξV][ξP]; lactam 2-C), the MIC is 2 µg/mL.

For `CC(C)C1NC(=O)C(C(C)N)NC(=O)CNC(=O)C(CC(=O)O)NC(=O)CNC(=O)C(CC(=O)O)NC(=O)C(C(C)C(=O)O)NC(=O)C2CCCCN2C(=O)C(NC(=O)C(CC(=O)O)NC(=O)CCCCCCCCCCCN)C(C)NC(=O)C2CCCN2C1=O` (stereo not drawn) [Compound 375, (12-Aminododecoyl)-Amphomycin] (H-[12Ado]D[ξAbu(βξ-NH2)][Pip][ξAsp(βξ-Me)]DGDG[ξAbu(3ξ-NH2)]VP; lactam 3-C; configuration not given here), the MIC was more than 64 µg/mL.

With `CCCCCCCCCCCCCCC(=O)NC(CC(=O)O)C(=O)NC1C(=O)N2CCCCC2C(=O)NC(C(C)C(=O)O)C(=O)NC(CC(=O)O)C(=O)NCC(=O)NC(CC(=O)O)C(=O)NCC(=O)NC(C(C)NC(=O)[C@@H]2CCCCN2)C(=O)NC(C(C)C)C(=O)N2CCCC2C(=O)NC1C` (stereo partly shown) [Compound 95, C15-Amphomycin-9-hPro], the MIC turned out to be 2 µg/mL.

Consider `CC(C)CCCCCC/C=C\C(=O)NC(CC(=O)O)C(=O)NC1C(=O)N2CCCCC2C(=O)NC(C(C)C(=O)O)C(=O)NC(CC(=O)O)C(=O)NCC(=O)NC(CC(=O)O)C(=O)NCC(=O)NC(C(C)N)C(=O)NC(C(C)C)C(=O)N2CCCC2C(=O)NC1C` (stereo not drawn) [Compound 364, (10-Methyl-Undec-2-Enoyl)-Amphomycin] (X32-D[ξAbu(βξ-NH2)][Pip][ξAsp(βξ-Me)]DGDG[ξAbu(3ξ-NH2)]VP; lactam 2-C; configuration not given here), for which the MIC lay within 4 to 8 µg/mL.

Turning to `CCCCCCCCCCCCCCC(=O)NC(CC(=O)O)C(=O)NC1C(=O)N2CCCCC2C(=O)NC(C(C)C(=O)O)C(=O)NC(CC(=O)O)C(=O)NCC(=O)NC(CC(=O)O)C(=O)NCC(=O)NC(C(C)NC(=O)CNC(C)=O)C(=O)NC(C(C)C)C(=O)N2CCCC2C(=O)NC1C` (stereo not shown) [Compound 49, C15-Amphomycin-9-Gly-Ac], the MIC is 4 µg/mL.

For the compound `CCCCCCCCCCCCCC(=O)NC(CC(=O)O)C(=O)NC1C(=O)N2CCCCC2C(=O)NC(C(C)C(=O)O)C(=O)NC(CC(=O)O)C(=O)NCC(=O)NC(CC(=O)O)C(=O)NCC(=O)NC(C(C)N)C(=O)NC(C(C)C)C(=O)N2CCCC2C(=O)NC1C` (stereo not shown) [Compound 10, C14-Amphomycin], the MIC was 1 µg/mL.

On to `CCCCCCCCCCCCCCC(=O)NC(CC(=O)O)C(=O)NC1C(=O)N2CCCCC2C(=O)NC(C(C)C(=O)O)C(=O)NC(CC(=O)O)C(=O)NCC(=O)NC(CC(=O)O)C(=O)NCC(=O)NC(C(C)NC(=O)C2CCNCC2)C(=O)NC(C(C)C)C(=O)N2CCCC2C(=O)NC1C` (stereo not drawn) [Compound 26, C15-Amphomycin-9-Ina] (Pentadecanoyl-D[ξAbu(βξ-NH2)][Pip][ξAsp(βξ-Me)]DGDG[X7]VP; lactam 2-C; configuration not given here), for which the MIC stood at 4 µg/mL.

With `CCCCCCCCCCCCCCC(=O)NC(CC(=O)O)C(=O)NC1C(=O)N2CCCCC2C(=O)NC(C(C)C(=O)O)C(=O)NC(CC(=O)O)C(=O)NCC(=O)NC(CC(=O)O)C(=O)NCC(=O)NC(C(C)NC(=O)[C@@H](N)CC(N)=O)C(=O)NC(C(C)C)C(=O)N2CCCC2C(=O)NC1C` (stereo partly shown) [Compound 38, C15-Amphomycin-9-Asn], the minimum inhibitory concentration (MIC) was found to be 2 µg/mL.

As to `CCCCCCCCCCCCCCC(=O)NC(CC(=O)O)C(=O)NC1C(=O)N2CCCCC2C(=O)NC(C(C)C(=O)O)C(=O)NC(CC(=O)O)C(=O)NCC(=O)NC(CC(=O)O)C(=O)NCC(=O)NC(C(C)NC(=O)CNC(=O)[C@@H](N)CCN)C(=O)NC(C(C)C)C(=O)N2CCCC2C(=O)NC1C` (stereo partly shown) [Compound 154, C15-Amphomycin-9-Gly-gDab], the MIC was found to be 4 µg/mL.

Consider `CCCCCCCCCCCNC(=O)NCCC(=O)NC(CC(=O)O)C(=O)NC1C(=O)N2CCCCC2C(=O)NC(C(C)C(=O)O)C(=O)NC(CC(=O)O)C(=O)NCC(=O)NC(CC(=O)O)C(=O)NCC(=O)NC(C(C)N)C(=O)NC(C(C)C)C(=O)N2CCCC2C(=O)NC1C` (stereo not drawn) [Compound 286, CH3—(CH2)10—NH—C(═O)-(β-Ala)-Amphomycin], for which the MIC was 2 µg/mL.

As to `CCCCCCCCCCC(=O)N[C@@H](CC(=O)OC)C(=O)NC(CC(=O)O)C(=O)NC1C(=O)N2CCCCC2C(=O)NC(C(C)C(=O)O)C(=O)NC(CC(=O)O)C(=O)NCC(=O)NC(CC(=O)O)C(=O)NCC(=O)NC(C(C)N)C(=O)NC(C(C)C)C(=O)N2CCCC2C(=O)NC1C` (stereo partly drawn) [Compound 316, C11-(Asp-(OMe))-Amphomycin] (Undecanoyl-D(OMe)[ξD][ξAbu(βξ-NH2)][ξPip][ξAsp(βξ-Me)][ξD]G[ξD]G[ξAbu(3ξ-NH2)][ξV][ξP]; lactam 3-C), the MIC is more than 64 µg/mL.

On to `CCCCCCCCCCCCCCC(=O)NC(CC(=O)O)C(=O)NC1C(=O)N2CCCCC2C(=O)NC(C(C)C(=O)O)C(=O)NC(CC(=O)O)C(=O)NCC(=O)NC(CC(=O)O)C(=O)NCC(=O)NC(C(C)NC(=O)[C@@H](N)Cc2ccc(O)cc2)C(=O)NC(C(C)C)C(=O)N2CCCC2C(=O)NC1C` (stereo partly shown) [Compound 39, C15-Amphomycin-9-Tyr], for which the MIC was 32 to 64 µg/mL.

Regarding `CCCCCCCCCCCCC(=O)N[C@@H](CC(=O)OC(C)(C)C)C(=O)NC(CC(=O)O)C(=O)NC1C(=O)N2CCCCC2C(=O)NC(C(C)C(=O)O)C(=O)NC(CC(=O)O)C(=O)NCC(=O)NC(CC(=O)O)C(=O)NCC(=O)NC(C(C)N)C(=O)NC(C(C)C)C(=O)N2CCCC2C(=O)NC1C` (stereo partly drawn) [Compound 315, C13-(Asp-(OtBu))-Amphomycin] (Tridecanoyl-D(OtBu)[ξD][ξAbu(βξ-NH2)][ξPip][ξAsp(βξ-Me)][ξD]G[ξD]G[ξAbu(3ξ-NH2)][ξV][ξP]; lactam 3-C), the MIC was 1 µg/mL.

For `CCCCCCCCCCCCCCC(=O)NC(CC(=O)O)C(=O)NC1C(=O)N2CCCCC2C(=O)NC(C(C)C(=O)O)C(=O)NC(CC(=O)O)C(=O)NCC(=O)NC(CC(=O)O)C(=O)NCC(=O)NC(C(C)NC(=O)CCCCCCCCCCC)C(=O)NC(C(C)C)C(=O)N2CCCC2C(=O)NC1C` (stereo not shown) [Compound 347, C15-Amphomycin-9-C12], the MIC is more than 64 µg/mL.

For the compound `CCCCCCCCCCCCCCC(=O)NC(CC(=O)O)C(=O)NC1C(=O)N2CCCCC2C(=O)NC(C(C)C(=O)O)C(=O)NC(CC(=O)O)C(=O)NCC(=O)NC(CC(=O)O)C(=O)NCC(=O)NC(C(C)NC(=O)[C@@H](N)Cc2c[nH]c3ccccc23)C(=O)NC(C(C)C)C(=O)N2CCCC2C(=O)NC1C` (stereo partly shown) [Compound 40, C15-Amphomycin-9-Trp], the MIC fell in the range of 32 to 64 µg/mL.

As to `CCCCCCCCCCCC(=O)Nc1ccc(/C=C/C(=O)NC(CC(=O)O)C(=O)NC2C(=O)N3CCCCC3C(=O)NC(C(C)C(=O)O)C(=O)NC(CC(=O)O)C(=O)NCC(=O)NC(CC(=O)O)C(=O)NCC(=O)NC(C(C)N)C(=O)NC(C(C)C)C(=O)N3CCCC3C(=O)NC2C)cc1` (stereo not drawn) [Compound 120, C12-(p-Amino-Trans-Cinnamyl)-Amphomycin] (Lauroyl-[X8]D[ξAbu(βξ-NH2)][Pip][ξAsp(βξ-Me)]DGDG[ξAbu(3ξ-NH2)]VP; lactam 3-C; configuration not given here), the MIC worked out at 0.5 µg/mL.

As to `CCCCCCCCCCCCCCC(=O)NC(CC(=O)O)C(=O)NC1C(=O)N2CCCCC2C(=O)NC(C(C)C(=O)O)C(=O)NC(CC(=O)O)C(=O)NCC(=O)NC(CC(=O)O)C(=O)NCC(=O)NC(C(C)NC(=O)[C@@H](N)CCCNC(=NC)NC)C(=O)NC(C(C)C)C(=O)N2CCCC2C(=O)NC1C` (stereo partly drawn) [Compound 166, C15-Amphomycin-9-(ME)2Arg] (Pentadecanoyl-[ξD][ξAbu(βξ-NH2)][ξPip][ξAsp(βξ-Me)][ξD]G[ξD]G[ξAbu(βξ-NH2)](Arg(Me2s))[ξV][ξP]; lactam 2-C), the MIC stood at 32 µg/mL.

The same assay, now with this note: S. aureus (MSSA), CAMHB supplemented with 0.625 mM calcium, 24 hours at about 37° C.; a range = compound tested multiple times.
On to `CCCCCCCCCCCCCCCC(=O)NC(CC(=O)O)C(=O)NC1C(=O)N2CCCCC2C(=O)NC(C(C)C(=O)O)C(=O)NC(CC(=O)O)C(=O)NCC(=O)NC(CC(=O)O)C(=O)NCC(=O)NC(C(C)NC(=O)CCN)C(=O)NC(C(C)C)C(=O)N2CCCC2C(=O)NC1C` (stereo not drawn) [Compound 79, C16-Amphomycin-9-(β-Ala)], for which the MIC is reported as 79/1 μg/mL.

On to “β-Isomer of CH3—(CH2)13—NH—C(═O)-Amphomycin [Compound 329]”, for which the MIC was 4^† μg/mL.

Consider `CCCCCCCCCCCCC(=O)NC(CC(=O)O)C(=O)NC1C(=O)N2CCCCC2C(=O)NC(C(C)C(=O)O)C(=O)NC(CC(=O)O)C(=O)NCC(=O)NC(CC(=O)O)C(=O)NCC(=O)NC(C(C)NC(=O)CNC)C(=O)NC(C(C)C)C(=O)N2CCCC2C(=O)NC1C` (stereo not shown) [Compound 55, C13-Amphomycin-9-Sar], for which the MIC was 55/1 μg/mL.

Turning to “CH3—(CH2)7—NH—C(═O)-(M-Phenylacetyl)-Amphomycin [Compound 306]”, the minimum inhibitory concentration (MIC) came out at 16 µg/mL.

Take C12-Amphomycin-9-gDab [Compound 138]: the MIC is given as 138/32 μg/mL.

On to “CH3—(CH2)7—NH—C(═O)-(p-Phenylacetyl)-Amphomycin [Compound 288]”, for which the MIC turned out to be 16 µg/mL.

Source of the values: patent US7868135B2, “Compositions of lipopeptide antibiotic derivatives and methods of use thereof” (priority 2003, dated 2011).
